Experimental data reported in PubChem BioAssay (NCI).
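Exposure lasted 48 hours, with cells grown in 96-well plates and compounds tested at five concentrations. TGI marks complete inhibition of growth.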

Experiments:
Assay in all cases: NCI tumour cell line growth inhibition, 48 h
SK-MEL-5 melanoma = test system: SK-MEL-5 melanoma
UO-31 renal = test system: UO-31 renal
LOX IMVI melanoma = test system: LOX IMVI melanoma
DMS 114 small cell lung = test system: DMS 114 small cell lung
M14 melanoma = test system: M14 melanoma
NCI-H23 lung = test system: NCI-H23 lung
RPMI-8226 leukemia = test system: RPMI-8226 leukemia
DMS 273 small cell lung = test system: DMS 273 small cell lung
M19-MEL melanoma = test system: M19-MEL melanoma
SF-539 CNS = test system: SF-539 CNS
HT29 colon = test system: HT29 colon
LXFL 529 NSCLC = test system: LXFL 529 NSCLC
A498 renal = test system: A498 renal
OVCAR-8 ovarian = test system: OVCAR-8 ovarian
DLD-1 colon = test system: DLD-1 colon
SK-MEL-2 melanoma = test system: SK-MEL-2 melanoma
SNB-78 CNS = test system: SNB-78 CNS
SK-MEL-28 melanoma = test system: SK-MEL-28 melanoma
SF-268 CNS = test system: SF-268 CNS
SW-620 colon = test system: SW-620 colon
COLO 205 colon = test system: COLO 205 colon
IGROV1 ovarian = test system: IGROV1 ovarian
SK-OV-3 ovarian = test system: SK-OV-3 ovarian
UACC-62 melanoma = test system: UACC-62 melanoma
HCT-15 colon = test system: HCT-15 colon
ACHN renal = test system: ACHN renal
HL-60(TB) leukemia = test system: HL-60(TB) leukemia
SNB-75 CNS = test system: SNB-75 CNS
RXF-631 renal = test system: RXF-631 renal
K-562 leukemia = test system: K-562 leukemia
KM20L2 colon = test system: KM20L2 colon
SNB-19 CNS = test system: SNB-19 CNS
OVCAR-3 ovarian = test system: OVCAR-3 ovarian
NCI-H226 lung = test system: NCI-H226 lung
HOP-92 NSCLC = test system: HOP-92 NSCLC
CCRF-CEM leukemia = test system: CCRF-CEM leukemia
SN12C renal = test system: SN12C renal
MOLT-4 leukemia = test system: MOLT-4 leukemia
CAKI-1 renal = test system: CAKI-1 renal
SF-295 CNS = test system: SF-295 CNS
EKVX NSCLC = test system: EKVX NSCLC
MALME-3M melanoma = test system: MALME-3M melanoma
NCI-H460 lung = test system: NCI-H460 lung
U251 CNS = test system: U251 CNS
NCI-H522 lung = test system: NCI-H522 lung
TK-10 renal = test system: TK-10 renal
HOP-18 NSCLC = test system: HOP-18 NSCLC
OVCAR-4 ovarian = test system: OVCAR-4 ovarian
HCC-2998 colon = test system: HCC-2998 colon
OVCAR-5 ovarian = test system: OVCAR-5 ovarian
A549 NSCLC = test system: A549 NSCLC
RXF 393 renal = test system: RXF 393 renal
HOP-62 NSCLC = test system: HOP-62 NSCLC
KM12 colon = test system: KM12 colon
786-0 renal = test system: 786-0 renal
UACC-257 melanoma = test system: UACC-257 melanoma
HCT-116 colon = test system: HCT-116 colon

Measured: TGI

CCOCc1cc(=O)c2c(O)cc3c(c2o1)CCC(C)(C)O3
not listed: OVCAR-4 ovarian | HCC-2998 colon | OVCAR-5 ovarian | A549 NSCLC | RXF 393 renal | HOP-62 NSCLC | KM12 colon | 786-0 renal | UACC-257 melanoma | HCT-116 colon
> 100 µM: all other assays above

CC1CCCP(=O)(c2ccccc2)CC1 (stereo not drawn)
0.958 µM: HOP-18 NSCLC
not listed: HL-60(TB) leukemia | NCI-H226 lung | HOP-92 NSCLC | NCI-H522 lung | HCT-116 colon
> 100 µM: all other assays above

O=C(CCc1n[nH]c(=S)o1)Nc1cc(Cl)c(Cl)cc1Cl
49 µM: K-562 leukemia
49.9 µM: HCT-15 colon
31.4 µM: SW-620 colon
91.8 µM: A498 renal
72.5 µM: DMS 273 small cell lung
50.8 µM: RPMI-8226 leukemia
63.6 µM: 786-0 renal
30 µM: HCT-116 colon
86.3 µM: DLD-1 colon
not listed: LOX IMVI melanoma | SK-MEL-2 melanoma | RXF 393 renal
> 100 µM: all other assays above
